Bounds are passed on as bounds.

In assay [1] the test system is HCT116 cells cotransfected with the FOP control vector (non-functional TCF elements). Put plainly: HCT116 FOPFlash control reporter assay (FOP control vector, luciferase). It counts as cell-based. The conditions noted are these: Homo sapiens, HCT-116, 36 hours incubation, dilution series 50 μM to 15 nM, luciferase expression. As for the experimental part:
In a parallel approach, HCT116 cells were cotransfected with the FOP control vector and pcDNA3. The FOP vector is identical to the TOP construct, but it contains instead of functional TCF elements a randomized, non-functional sequence. For this transfection a stable transfected cell line was generated as well.
(§1) In preparation of the assay, the two cell lines were plated 24 hours before at 10000 cells per well of a 384 micro titre plate (MTP) in 30 μL growth medium. Selective inhibitory activity for small molecules on the mutated Wnt pathway was determined after parallel incubation of both (TOP and FOP) HCT116 reporter cell lines with a compound dilution series from 50 μM to 15 nM in steps of 3.16-fold dilutions in CAFTY buffer (130 mM NaCl, 5 mM KCl, 20 mM HEPES, 1 mM MgCl2, 5 mM NaHCO3, pH 7.4) containing 2 mM Ca^2+ and 0.01% BSA. The compounds were thereby serially prediluted in 100% DMSO and thereafter in addition 50 fold into the CAFTY compound dilution buffer (described above). From this dilution 10 μL were added to the cells in 30 μL growth medium and incubated for 36 hours at 37° C. and 5% CO2.

For assay [2], the system named is constitutive active colorectal cancer cell (CRC) Wnt pathway. The assay can be described thus: HCT116 TOPFlash cellular reporter assay (Super TopFlash vector, luciferase). In kind it is cell-based. The conditions noted are these: Homo sapiens, HCT-116; HCT116 Super TopFlash reporter cells, 36 hours incubation, dilution series 50 μM to 15 nM, luciferase expression. As for the experimental part:
In order to discover and characterize small molecules which inhibit the constitutive active colorectal cancer cell (CRC) Wnt pathway, a cellular reporter assay was employed. The corresponding assay cell was generated by transfection of the colorectal cancer cell line HCT116 (ATCC, #CCL-247) with the Super TopFlash vector (Morin, Science 275, 1997, 1787-1790; Molenaar et al., Cell 86 (3), 1996, 391-399). The HCT116 cell line is cultivated at 37° C. and 5% CO2 in DMEM/F-12 (Life Technologies, #11320-074), supplemented with 2 mM glutamine, 20 mM HEPES, 1.4 mM pyruvate, 0.15% Na-bicarbonate and 10% foetal bovine serum (GIBCO, #10270), this cancer cell line is pathophysiological relevant since it carries a deletion of position S45 in the β-catenin gene, leading to constitutive active Wnt signaling. Stable transfectants were generated by cotransfection with pcDNA3 and selection of stable transfected cells with 1 mg/ml G418.
as §1

For the compound `COc1ccc(NC(=O)c2ccc(-c3ccccc3)cc2)cc1C(=O)Nc1ccncc1` [Example 1, N-[4-methoxy-3-(pyridin-4-ylcarbamoyl)phenyl]biphenyl-4-carboxamide], the IC50 was 35000 nM in assay [1] and 483 nM in assay [2].
Taken in the same sequence, the figures for `COCCCNC(=O)c1cc(NC(=O)c2ccc(-c3ccccc3)cc2)ccc1OC` [Example 2, N-{4-methoxy-3-[(3-methoxypropyl)carbamoyl]phenyl}biphenyl-4-carboxamide] were at least 50000 nM and 495 nM.
Taken in the same sequence, the figures for `COc1ccc(NC(=O)c2ccc(-c3ccccc3)cc2)cc1C(=O)Nc1ccnc(C)c1` [Example 3, N-{4-methoxy-3-[(2-methylpyridin-4-yl)carbamoyl]phenyl}biphenyl-4-carboxamide] were 28000 nM and 91.7 nM.
`COCCCN(C)C(=O)c1cc(NC(=O)c2ccc(-c3ccccc3)cc2)ccc1OC` [Example 4, N-{4-methoxy-3-[(3-methoxypropyl)(methyl)carbamoyl]phenyl}biphenyl-4-carboxamide]: the IC50 in assay [1] came out at 12200 nM; in assay [2], 815 nM.
Taken in the same sequence, the figures for `CCOCCCNC(=O)c1cc(NC(=O)c2ccc(-c3ccccc3)cc2)ccc1OC` [Example 5, N-{3-[(3-ethoxypropyl)carbamoyl]-4-methoxyphenyl}biphenyl-4-carboxamide] were 31000 nM and 608 nM.
The matching figures for `COc1ccc(NC(=O)c2ccc(-c3ccccc3)cc2)cc1C(=O)NCCCOC(C)C` [Example 6, N-{3-[(3-isopropoxypropyl)carbamoyl]-4-methoxyphenyl}biphenyl-4-carboxamide]: 14400 nM and 383 nM.
Taken in the same sequence, the figures for `O=C(Nc1ccc(-c2ccccc2)cc1)c1ccc(OC(F)(F)F)c(C(=O)NCc2ccccn2)c1` [Example 7, N^1-(biphenyl-4-yl)-N^3-(pyridin-2-ylmethyl)-4-(trifluoromethoxy)isophthalamide] were at least 50000 nM and 359 nM.
Regarding `COc1ccc(NC(=O)c2ccc(-c3ccccc3)cc2)cc1C(=O)Nc1ccncc1F` [Example 8, N-{3-[(3-fluoropyridin-4-yl)carbamoyl]-4-methoxyphenyl}biphenyl-4-carboxamide], the IC50 in assay [1] is at least 50000 nM; in assay [2], 129 nM.
Taken in the same sequence, the figures for `COc1ccc(NC(=O)c2ccc(-c3ccccc3)cc2)cc1C(=O)Nc1ccncc1Cl` [Example 9, N-{3-[(3-chloropyridin-4-yl)carbamoyl]-4-methoxyphenyl}biphenyl-4-carboxamide] were at least 50000 nM and 149 nM.
Take `Cc1cc(NC(=O)c2cc(C(=O)Nc3ccc(-c4ccccc4)cc3)ccc2OC(F)(F)F)ccn1` [Example 10, N^1-(biphenyl-4-yl)-N^3-(2-methylpyridin-4-yl)-4-(trifluoromethoxy)isophthalamide]: the IC50 turned out to be 10000 nM in assay [1] and 600 nM in assay [2].
With `COc1ccc(C(=O)Nc2ccc(-c3ccccc3)cc2)cc1C(=O)Nc1ccncc1` [Example 11, N^1-(biphenyl-4-yl)-4-methoxy-N^3-(pyridin-4-yl)isophthalamide], the half-maximal inhibitory concentration (IC50) in assay [1] came to 11500 nM; in assay [2], 415 nM.
Taken in the same sequence, the figures for `COc1ccc(C(=O)Nc2ccc(-c3ccccc3)cc2)cc1C(=O)Nc1ccnc(C)c1` [Example 12, N^1-(biphenyl-4-yl)-4-methoxy-N^3-(2-methylpyridin-4-yl)isophthalamide] were 13500 nM and 635 nM.
The matching figures for `COc1ccc(C(=O)Nc2ccc(-c3ccccc3)cc2)cc1C(=O)Nc1ccncc1C` [Example 13, N^1-(biphenyl-4-yl)-4-methoxy-N^3-(3-methylpyridin-4-yl)isophthalamide]: at least 50000 nM and 405 nM.
Taken in the same sequence, the figures for `COc1ccc(C(=O)Nc2ccc(-c3ccccc3)cc2)cc1C(=O)Nc1ccncc1F` [Example 14, N^1-(biphenyl-4-yl)-N^3-(3-fluoropyridin-4-yl)-4-methoxyisophthalamide] were at least 50000 nM and 144 nM.
`COc1ccc(C(=O)Nc2ccc(-c3ccccc3)cc2)cc1C(=O)Nc1ccncc1Cl` [Example 15, N^1-(biphenyl-4-yl)-N^3-(3-chloropyridin-4-yl)-4-methoxyisophthalamide]: the IC50 in assay [1] was at least 50000 nM; in assay [2] it was 900 nM.
Turning to `COc1ccc(C(=O)Nc2ccc(-c3ccccc3)cc2)cc1C(=O)NCc1cccnc1` [Example 16, N^1-(biphenyl-4-yl)-4-methoxy-N^3-(pyridin-3-ylmethyl)isophthalamide], the IC50 was at least 50000 nM in assay [1] and 640 nM in assay [2].
The matching figures for `O=C(Nc1ccc(-c2ccccc2F)nc1)c1ccc(OC(F)(F)F)c(C(=O)Nc2ccncc2)c1` [Example 17, N^1-[6-(2-fluorophenyl)pyridin-3-yl]-N^3-(pyridin-4-yl)-4-(trifluoromethoxy)isophthalamide]: at least 50000 nM and 675 nM.
Regarding `O=C(Nc1ccc(-c2ccccc2F)nc1)c1ccc(OC(F)(F)F)c(C(=O)NCc2cccnc2)c1` [Example 18, N^1-[6-(2-fluorophenyl)pyridin-3-yl]-N^3-(pyridin-3-ylmethyl)-4-(trifluoromethoxy)isophthalamide], the IC50 turned out to be 18500 nM in assay [1] and 950 nM in assay [2].
`Cc1cnccc1NC(=O)c1cc(C(=O)Nc2ccc(-c3ccccc3F)nc2)ccc1OC(F)(F)F` [Example 19, N^1-[6-(2-fluorophenyl)pyridin-3-yl]-N^3-(3-methylpyridin-4-yl)-4-(trifluoromethoxy)isophthalamide]: the results for the IC50 in assay [1] and in assay [2] were at least 50000 nM and 878 nM, respectively.
The matching figures for `O=C(Nc1ccc(-c2ccccc2)cc1)c1ccc(OC(F)(F)F)c(C(=O)Nc2ccncc2)c1` [Example 20, N^1-(biphenyl-4-yl)-N^3-(pyridin-4-yl)-4-(trifluoromethoxy)isophthalamide]: 7550 nM and 335 nM.
Taken in the same sequence, the figures for `O=C(Nc1ccc(-c2ccccc2)cc1)c1ccc(OC(F)(F)F)c(C(=O)NCc2cccnc2)c1` [Example 21, N^1-(biphenyl-4-yl)-N^3-(pyridin-3-ylmethyl)-4-(trifluoromethoxy)isophthalamide] were 32500 nM and 160 nM.
Taken in the same sequence, the figures for `O=C(Nc1ccc(-c2ccccc2)cc1)c1ccc(OC(F)(F)F)c(C(=O)Nc2ccncc2F)c1` [Example 22, N^1-(biphenyl-4-yl)-N^3-(3-fluoropyridin-4-yl)-4-(trifluoromethoxy)isophthalamide] were at least 50000 nM and 375 nM.
On to `COc1cnccc1NC(=O)c1cc(C(=O)Nc2ccc(-c3ccccc3)cc2)ccc1OC(F)(F)F` [Example 23, N^1-(biphenyl-4-yl)-N^3-(3-methoxypyridin-4-yl)-4-(trifluoromethoxy)isophthalamide], for which the IC50 in assay [1] was at least 50000 nM; in assay [2], 243 nM.
`CC(C)(C)OC(=O)Nc1ccc(CNC(=O)c2cc(C(=O)Nc3ccc(-c4ccccc4)cc3)ccc2OC(F)(F)F)cn1` [Example 24, tert-butyl [5-({[5-(biphenyl-4-ylcarbamoyl)-2-(trifluoromethoxy)benzoyl]amino}methyl)pyridin-2-yl]carbamate]: the figures for the concentration for half-maximal inhibition (IC50) in assay [1] and in assay [2] were 23000 nM and 835 nM, respectively.
The matching figures for `COc1ccc(C(=O)Nc2ccc(-c3ccccc3F)nc2)cc1C(=O)Nc1cccnc1C` [Example 25, N^1-[6-(2-fluorophenyl)pyridin-3-yl]-4-methoxy-N^3-(2-methylpyridin-3-yl)isophthalamide]: at least 50000 nM and 840 nM.
Turning to `COc1ccc(C(=O)Nc2ccc(-c3ccccc3F)nc2)cc1C(=O)Nc1ccnc(C)c1` [Example 26, N^1-[6-(2-fluorophenyl)pyridin-3-yl]-4-methoxy-N^3-(2-methylpyridin-4-yl)isophthalamide], the IC50 in assay [1] was at least 50000 nM; in assay [2], 360 nM.
On to `COc1ccc(C(=O)Nc2ccc(-c3ccccc3F)nc2)cc1C(=O)Nc1ccncc1F` [Example 27, N^1-[6-(2-fluorophenyl)pyridin-3-yl]-N^3-(3-fluoropyridin-4-yl)-4-methoxyisophthalamide], for which the IC50 is at least 50000 nM in assay [1] and 645 nM in assay [2].
The matching figures for `COc1cnccc1NC(=O)c1cc(C(=O)Nc2ccc(-c3ccccc3F)nc2)ccc1OC` [Example 28, N^1-[6-(2-fluorophenyl)pyridin-3-yl]-4-methoxy-N^3-(3-methoxypyridin-4-yl)isophthalamide]: at least 50000 nM and 225 nM.

These data come from patent publication US20180028507A1, “3-CARBAMOYLPHENYL-4-CARBOXAMIDE AND ISOPHTALAMIDE DERIVATIVES AS INHIBITORS OF THE WNT SIGNALLING PATHWAY” (Bayer Pharma Aktiengesellschaft, priority 2015, published 2018).
